Test results published in paper PMC7162492, “Pharmacological and pharmacokinetic profile of the novel ocular hypotensive prodrug CKLP1 in Dutch-belted pigmented rabbits” (PLoS ONE, 2020).
Several values for one entry are separate records, joined by “and”; a condition that tells them apart may be missing. Equal values may be shown once. Entries after “also recorded” stand apart in the source; their conditions may differ.

Assays:
phosphatases = assay: In vitro cleavage of CKLP1 by phosphatases (unpublished data); format: in vitro ADME
[1] = system: IOP in Dutch-belted pigmented rabbits; assay: IOP measurement by rebound tonometer during 90 days of topical CKLP1; format: in vivo
Text: (§1) All experiments with animals were pre-approved by the Institutional Animal Care and Use Committee of the Mayo Clinic, Rochester, MN and adhered to the recommendations in the Guide for the Care and use of Laboratory Animals of the National Institutes of Health, and the tenets of the ARVO Statement for the Use of Animals in Vision Research. Female Dutch-belted pigmented rabbits (age 7 months) were obtained from Covance Research Products, Inc. (Denver, PA). Rabbits were housed in pairs and kept in a climate controlled room with 12 h light and dark cycles. Animals had unrestrained access to water and standard rabbit food pellets at all times. Upon receipt, animals were acclimated for at least 5 days before initiation of the experiment. IOP was measured with a handheld rebound tonometer (Icare Tonovet, Colonial Medical Supply, Franconia, NH, USA) in conscious and minimally restrained, non-anesthetized rabbits as previously described. Briefly, daily IOP was calculated from the average of 3 independent IOP measurements at 3 different time points each day. These time points corresponded to 1 h, 4 h and 23 h post treatment on any given day. Rabbits that needed to be handled for IOP were subjected to sham IOP measurements for two days prior to initiation of experiment. Rabbits (n = 3) were injected intravenously through the right ear vein with CKLP1 as a bolus dose equal to 0.25 mg/kg body weight. Additional rabbits were treated topically through instillation of 50 μl eye drops of a 10 mM (4.1 mg/ml) solution of CKLP1 in sterile PBS. Topical CKLP1 application was continued once daily (9:30 am every day) for either 1 (n = 3), 4 (n = 3), 8 (n = 3) or 90 days (n = 6). In the 1, 4 and 8 day groups, drug was added to both eyes, whereas in the 90 day group, CKLP1 was added to one eye while the contralateral eye received vehicle (PBS, Corning, Manassas, VA).
IOP values are represented as mean ± standard deviation. IOP differences between treated and control eyes were compared using two-tailed paired Student’s t-test. Pharmacokinetic parameters (Cmax, Tmax, AUC and concentration of CKLP1 and levcromakalim) across various days following treatment were compared with one-way ANOVA. Criterion for statistically significant difference of means was set at p<0.05. Statistical analyses were performed using Microsoft Excel and its data analysis add-on feature.

[2] = system: Dutch-belted pigmented rabbits; assay: Histology of tissues at necropsy after 90 days of topical CKLP1; format: in vivo; settings: topical CKLP1 once daily, masked veterinary pathologist
Text: All experiments with animals were pre-approved by the Institutional Animal Care and Use Committee of the Mayo Clinic, Rochester, MN and adhered to the recommendations in the Guide for the Care and use of Laboratory Animals of the National Institutes of Health, and the tenets of the ARVO Statement for the Use of Animals in Vision Research. Female Dutch-belted pigmented rabbits (age 7 months) were obtained from Covance Research Products, Inc. (Denver, PA). Rabbits were housed in pairs and kept in a climate controlled room with 12 h light and dark cycles. Animals had unrestrained access to water and standard rabbit food pellets at all times. Upon receipt, animals were acclimated for at least 5 days before initiation of the experiment. IOP was measured with a handheld rebound tonometer (Icare Tonovet, Colonial Medical Supply, Franconia, NH, USA) in conscious and minimally restrained, non-anesthetized rabbits as previously described. Briefly, daily IOP was calculated from the average of 3 independent IOP measurements at 3 different time points each day. […]
To assess cell and tissue morphology following CKLP1 treatment for 90 days, necropsy was performed on all 6 treated rabbits. Representative hematoxylin and eosin stained sections from 34 tissues were isolated, processed and assessed in a masked manner by a certified veterinary pathologist. […]

[3] = Concentration in aqueous and vitreous humor after topical CKLP1 for 1, 4 or 8 days (LC-MS/MS); format: in vivo, Dutch-belted pigmented rabbits; settings: topical CKLP1 both eyes, days 1, 4 and 8, collected after the 24 h blood sample
Description: LC-MS/MS analysis of all fluids were performed using a Waters (Milford, MA) Acquity UPLC BEH C18 column (1.7 μm, 2.1 x 50 mm) with an Agilent EC-C18 pre-column (2.7 μm, 2.1 x 5 mm) and a gradient elution program containing ultra-pure water and acetonitrile with 2.5 mM ammonium formate, at a flow rate of 0.2 ml/min. Flavopiridol was used as an internal standard. The column and auto-sampler temperatures were maintained at 40°C and 4°C, respectively. Source parameters were capillary voltage, 2.6 kV; source temperature, 150°C; desolvation temperature, 500°C; cone gas flow, 150 L/h; and desolvation gas flow, 800 L/h. The cone voltages and collision energies for CKLP1, levcromakalim and flavopiridol were determined by MassLynx-Intellistart software, v4.1, and were 32, 34 and 72 V (cone) and 20, 14 and 30 eV (collision), respectively. The retention times were 4.5 minutes for CKLP1, 5.9 minutes for levcromakalim and 5.7 minutes for flavopiridol.
To validate accurate measurement of CKLP1 and levcromakalim, known concentrations of CKLP1 (5, 10, 25, 50, 100, 250, 500 ng/ml) and levcromakalim (1, 5, 10, 25, 50, 100, 250 ng/ml) were added to human plasma (obtained from the Mayo Clinic Division of Transfusion Medicine under an Institutional Review Board approved protocol) to make calibration curves. Quality control was determined for each run by using known quantities of CKLP1 and levcromakalim to verify that the instrument recorded values consistent with the established standard curve. The effect of carryover was evaluated by injecting blank samples before and after running the standard samples for calibration curves. Unknown samples with signal to noise ratios >10 were recorded as acceptable concentrations. Samples with signal to noise ratios <10 were reported as not detectable (ND). Controls consisted of a double blank (without analytes and internal standard) and a single blank (only internal standard). The linearity of the calibration curves was determined by plotting the ratios of analytes to internal standard peak areas. The curve was fitted by least squares regression with a 1/x weighting for both CKLP1 and levcromakalim. Data was collected from 3–6.4 minutes for CKLP1 and 4–8 minutes for both levcromakalim and flavopiridol. Waters MassLynx Intellistart software v4.1 was used for analysis.
as §1, with “Topical CKLP1 application was continued once daily (9:30 am every day) for either 1 (n = 3), 4 (n = 3), 8 (n = 3) or 90 days (n = 6). In the 1, 4 and 8 day groups, drug was added to both eyes, whereas in the 90 day group, CKLP1 was added to one eye while the contralateral eye received vehicle (PBS, Corning, Manassas, VA).” left out

[4] = design: method as in earlier work; settings: ref Roy Chowdhury U, Viker KB, Stoltz KL, et al. J Med Chem. 2016;59(13):6221-31; cited from earlier work
[5] = 10 mM CKLP1 eye drop daily, 90 days

## sodium [CKLP1, sodium [(3S,4R)-6-cyano-2,2-dimethyl-4-(2-oxopyrrolidin-1-yl)-chroman-3-yl phosphate]]
phosphatases
  Cleavage by phosphatases to cromakalim in vitro: never completely cleaved
[1]; [5]
  IOP drop in the treated eye compared to baseline: 11.4 ± 4.7% and 11.4%
  IOP reduction in treated eye compared to contralateral vehicle treated eye: 14.1 ± 1.0%
[1]; 10 mM CKLP1 eye drop daily, 90 days, n = 6
  IOP absolute change in treated eyes compared to control eyes: 2.4 ± 0.4 mmHg
[1]; 10 mM CKLP1 eye drop daily, 90 days, baseline 16.5 ± 0.7
  IOP in the treated eye: 14.6 ± 1.0 mm Hg
[1]; after cessation of 90-day treatment, n = 3, baseline 16.5 ± 0.7
  Average IOP in treated eyes post treatment (washout group): 15.6 ± 0.6 mm Hg
[2]
  Histological changes in tissues: No observable histological changes; also recorded: did not show any observable histological changes; also recorded: No observable differences in histology
[3]
  Concentration in aqueous humor: No CKLP1 was detected; also recorded: below detectable limits
  Concentration in vitreous humor: No CKLP1 was detected; also recorded: below detectable limits
[4]
  Solubility in water: water soluble
